What was measured:
collagenase = test: Inhibitory effect of collagenase expression (collagenase immunoassay of fibroblast culture media); assay type: cell-based; details: human fibroblasts; for Degree of collagenase expression (%): serum-free DMEM, 1×10^4M for 24 hours, untreated group = 100
Protocol: The effect of inhibiting collagenase expression achieved by kaempferol-3-O-rutinoside obtained from Examples 3 and 4 is measured and compared with that achieved by tocopherol and EGCG. Tocopherol and EGCG are anti-oxidation materials that regenerate an epidermal cell of skin and prevent skin aging.
(§1) Human fibroblasts were inserted in a 96-well microtiter plate containing the DMEM (Dulbecco's Modified Eagle's Media) media with 2.5% fetal bovine serum to a quantity of 5000 cells/well and cultured until the human fibroblasts grow by 90%, then cultured again in the serum-free DMEM media for 24 hours. The kaempferol-3-O-rutinoside of Examples 3 and 4, tocopherol and EGCG dissolved in the serum-free DMEM media were treated at a concentration of 1×10^4M for 24 hours, and the cell culture media was harvested.
The degree of collagenase generation of harvested cell culture media was measured using an instrument for measuring collagenase (Amershampharmacia Company). The harvested cell culture media was added in a 96-well plate coated uniformly with first collagenase antibody, and antigen-antibody reaction was conducted for 3 hours in a thermostat.
After 3 hours, second collagen antibody bonded with chromophore was added in the 96-well plate to react for 15 minutes. After 15 minutes, color developing material was inserted at room temperature for 15 minutes to induce color development, then 1M sulfuric acid was added to terminate the reaction (color development). The color of the reaction solution is yellow and the degree of yellow color can differ according to a degree of reaction progression.
Absorbance of the 96-well plate having the yellow color was measured through an absorbency measurement at 405 nm and a degree of synthesis was calculated by the following equation 1. In the calculation, an absorbance of cell culture media untreated with the material was used as a control group. That is, a degree of collagenase expression of an untreated group is 100, and a degree of collagenase expression of a group treated with the material as compared to that of the control group is obtained.

procollagen = test: Promoting effect of procollagen generation (procollagen type-1 C-peptide EIA kit); assay type: cell-based; details: human fibroblasts; for Degree of procollagen generation (%): serum-free DMEM, 1×10^−4M for 24 hours, untreated group = 100
Protocol: The promoting effect of procollagen generation achieved by kaempferol-3-O-rutinoside obtained from Examples 3 and 4 is measured and compared with that achieved by vitamin C. The procollagen is a material inducing collagen generation and is required to generate collagen and prevent aging. Vitamin C is known as an essential component for synthesis of collagen.
as §1, with “4,” for “4, tocopherol”, “vitamin C” for “EGCG”, “1×10^−4M” for “1×10^4M”, “harvested. After 24 hours, the amount of procollagen floating in the culture media was measured using procollagen type-1 C-peptide EIA kit (MK101, Takara, Japan).” for “harvested.”
In an untreated group, a degree of procollagen generation is 100. A degree of procollagen generation of a group treated with the material as compared to that of the control group is obtained.

Molecule	Degree of collagenase expression (%) (collagenase)	Degree of procollagen generation (%) (procollagen)	Effect on collagenase expression (in words) (collagenase; in vitro)	Effect on procollagen generation (in words) (procollagen; in vitro)
O=C(O[C@@H]1Cc2c(O)cc(O)cc2O[C@@H]1c1cc(O)c(O)c(O)c1)c1cc(O)c(O)c(O)c1 [EGCG, reference compound]	60%	–	–	–
CC1OC(OCC2OC(Oc3c(-c4ccc(O)cc4)oc4cc(O)cc(O)c4c3=O)C(O)C(O)C2O)C(O)C(O)C1O (centres unmarked) [Example 3-1, Kaempferol-3-O-rutinoside]	70%	121%	–	–
CC1OC(OCC2OC(Oc3c(-c4ccc(O)cc4)oc4cc(O)cc(O)c4c3=O)C(O)C(O)C2O)C(O)C(O)C1O (centres unmarked) [Example 3-2, Kaempferol-3-O-rutinoside]	71%	118%	–	–
CC1OC(OCC2OC(Oc3c(-c4ccc(O)cc4)oc4cc(O)cc(O)c4c3=O)C(O)C(O)C2O)C(O)C(O)C1O (centres unmarked) [Example 3-3, Kaempferol-3-O-rutinoside]	63%	138%	–	–
CC1OC(OCC2OC(Oc3c(-c4ccc(O)cc4)oc4cc(O)cc(O)c4c3=O)C(O)C(O)C2O)C(O)C(O)C1O (centres unmarked) [Example 4-1, Kaempferol-3-O-rutinoside]	68%	145%	–	–
CC1OC(OCC2OC(Oc3c(-c4ccc(O)cc4)oc4cc(O)cc(O)c4c3=O)C(O)C(O)C2O)C(O)C(O)C1O (centres unmarked) [Example 4-2, Kaempferol-3-O-rutinoside]	73%	123%	–	–
CC1OC(OCC2OC(Oc3c(-c4ccc(O)cc4)oc4cc(O)cc(O)c4c3=O)C(O)C(O)C2O)C(O)C(O)C1O (centres unmarked) [Example 4-3, Kaempferol-3-O-rutinoside]	70%	122%	–	–
O=C1O[C@H]([C@@H](O)CO)C(O)=C1O [Vitamin C, reference compound]	–	120%	–	–
CC1OC(OCC2OC(Oc3c(-c4ccc(O)cc4)oc4cc(O)cc(O)c4c3=O)C(O)C(O)C2O)C(O)C(O)C1O (centres unmarked) [kaempferol-3-O-rutinoside]	–	–	inhibits the collagenase expression in vitro	promotes the procollagen generation in vitro
Tocopherol [reference compound]	75%	–	–	–
